In ChEMBL document CHEMBL1134446, “Polyamine analogue antidiarrheals: a structure-activity study” (J Med Chem, 2001) one finds Stool output, Weight loss and Reduction data, which are given here for six compounds.

Holding throughout (format): functional
For assay [1], the system named is Rattus norvegicus. Nature of the assay: Stool output of rat over the 6-h collection period when a dose of 4.6 mg/kg (11.6 administered.
The test system of assay [2] is Rattus norvegicus. Briefly: Weight loss of rat over the 6-h experimental period when a dose of 0 mg/kg (0 administered.
Assay [3] relates to Rattus norvegicus. Nature of the assay: Weight loss of rat over the 6-h experimental period when a dose of 4.6 mg/kg (11.6 administered.
For assay [4], the system named is Rattus norvegicus. Briefly: Stool output of rat over the 6-h collection period when a dose of 0 mg/kg (0 administered.
For assay [5], the system named is Rattus norvegicus. Briefly: Stool output of rat over the 6-h collection period when a dose of 1 mg/kg (2.3 administered.
Assay [6] concerns Rattus norvegicus. Nature of the assay: Stool output of rat over the 6-h collection period when a dose of 25 mg/kg (57.8 administered.
The subject of assay [7] is Rattus norvegicus. Briefly: Stool output of rat over the 6-h collection period when a dose of 5 mg/kg (11.6 administered.
For assay [8], the system named is Rattus norvegicus. Briefly: Weight loss of rat over the 6-h experimental period when a dose of 1 mg/kg (2.3 uMl) was administered.
Assay [9] has as its system Rattus norvegicus. Briefly: Weight loss of rat over the 6-h experimental period when a dose of 25 mg/kg (57.8 administered.
Assay [10] deals with Rattus norvegicus. Briefly: Weight loss of rat over the 6-h experimental period when a dose of 5 mg/kg (11.6 administered.
In assay [11] the test system is Rattus norvegicus. Nature of the assay: Percent reduction was determined by using the ratio of mean of treated animal to that of control animal at a dose of 25 mg/kg.
Assay [12] has as its system Rattus norvegicus. Briefly: Percent reduction was determined by using the ratio of mean of treated animal to that of control animal at a dose of 5 mg/kg.
Assay [13] concerns Rattus norvegicus. Nature of the assay: Percent reduction was determined by using the ratio of mean of treated animal to that of control animal at a dose of 1 mg/kg.
The subject of assay [14] is Rattus norvegicus. Nature of the assay: Stool output of rat over the 6-h collection period when a dose of 23.5 mg/kg (58.13 uM) was given orally. The note with it: route oral.
Assay [15] has as its system Rattus norvegicus. Nature of the assay: Stool output of rat over the 6-h collection period when a dose of 47 mg/kg (116.25 uM) was given orally. The note with it: route oral.
Assay [16] deals with Rattus norvegicus. Briefly: Stool output of rat over the 6-h collection period when a dose of 5.9 mg/kg (11.6 administered.
In assay [17] the test system is Rattus norvegicus. Briefly: Stool output of rat over the 6-h collection period when a dose of 94 mg/kg (232.5 uM) was given orally. The note with it: route oral.
Assay [18] concerns Rattus norvegicus. Nature of the assay: Weight loss of rat over the 6-h experimental period when a dose of 0 mg/kg (0 uM) was given orally. The note with it: route oral.
Assay [19] deals with Rattus norvegicus. Briefly: Weight loss of rat over the 6-h experimental period when a dose of 23.5 mg/kg (58.13 uM) was given orally. The note with it: route oral.
Assay [20] has as its system Rattus norvegicus. Nature of the assay: Weight loss of rat over the 6-h experimental period when a dose of 47 mg/kg (116.25 uM) was given orally. The note with it: route oral.
The test system of assay [21] is Rattus norvegicus. Briefly: Weight loss of rat over the 6-h experimental period when a dose of 5.9 mg/kg (11.6 administered.
Assay [22] deals with Rattus norvegicus. Briefly: Weight loss of rat over the 6-h experimental period when a dose of 94 mg/kg (232.5 uM) was given orally. The note with it: route oral.
Assay [23] deals with Rattus norvegicus. Briefly: Stool output of rat over the 6-h collection period when a dose of 0 mg/kg (0 uM) was given orally. The note with it: route oral.
Assay [24] deals with Rattus norvegicus. Briefly: Stool output of rat over the 6-h collection period when a dose of 2.7 mg/kg (5.8 administered.
The subject of assay [25] is Rattus norvegicus. Nature of the assay: Stool output of rat over the 6-h collection period when a dose of 5.3 mg/kg (11.6 administered.
In assay [26] the test system is Rattus norvegicus. Nature of the assay: Weight loss of rat over the 6-h experimental period when a dose of 1.1 mg/kg (2.3 administered.
Assay [27] deals with Rattus norvegicus. Nature of the assay: Weight loss of rat over the 6-h experimental period when a dose of 2.7 mg/kg (5.8 administered.
Assay [28] relates to Rattus norvegicus. Nature of the assay: Weight loss of rat over the 6-h experimental period when a dose of 5.3 mg/kg (11.6 administered.
Assay [29] relates to Rattus norvegicus. Nature of the assay: Stool output of rat over the 6-h collection period when a dose of 1.1 mg/kg (2.3 administered.
Assay [30] has as its system Rattus norvegicus. Briefly: Stool output of rat over the 6-h collection period when a dose of 30.4 mg/kg (57.8 administered.
Assay [31] concerns Rattus norvegicus. Nature of the assay: Stool output of rat over the 6-h collection period when a dose of 6.11 mg/kg (11.6 administered.
For assay [32], the system named is Rattus norvegicus. Nature of the assay: Weight loss of rat over the 6-h experimental period when a dose of 1.22 mg/kg (2.3 administered.
Assay [33] has as its system Rattus norvegicus. Briefly: Weight loss of rat over the 6-h experimental period when a dose of 30.4 mg/kg (57.8 administered.
In assay [34] the test system is Rattus norvegicus. Briefly: Weight loss of rat over the 6-h experimental period when a dose of 6.11 mg/kg (11.6 administered.
Assay [35] has as its system Rattus norvegicus. Briefly: Stool output of rat over the 6-h collection period when a dose of 1.22 mg/kg (2.3 administered.
For assay [36], the system named is Rattus norvegicus. Briefly: Stool output of rat over the 6-h collection period when a dose of 15 mg/kg (47.6 administered.
The subject of assay [37] is Rattus norvegicus. Briefly: Weight loss of rat over the 6-h experimental period when a dose of 15 mg/kg (47.6 administered.

Several values for one entry are separate records, joined by “and”; a condition that tells them apart may be missing. Equal entries are not always repeated. Some results are limits rather than exact numbers.

For `C(CCNC1CCNCC1)CNC1CCNCC1`, the figures for the Stool output in assay [1] and in assay [4] were >4.7 g (350g of rat weight)-1 and 4.2 g (350g of rat weight)-1, respectively. The Weight loss in assay [2] was 10 g; in [3], more than 9.5 g.
On to `CCCNCCCNCCCCNCCCNCCC`, for which the Stool output in assay [5] was >3.8 g (350g of rat weight)-1; in [6] it was <0 g (350g of rat weight)-1; in assay [7] it was <2.7 g (350g of rat weight)-1; in assay [4] it was 6 g (350g of rat weight)-1. Besides, the Weight loss in assay [2] is on record as 13.1 g; in assay [8] it was less than 9.1 g; in assay [9] it was less than 4 g; in assay [10], less than 5.7 g. Besides, the Reduction in [11] was 69% and 100%; in assay [12], 56% and 55%; in assay [13], 31% and 37%.
Regarding `FC(F)(F)CNCCCNCCCCNCCCNCC(F)(F)F`, the Stool output is on record as <1.9 g (350g of rat weight)-1 in assay [14]; <0.6 g (350g of rat weight)-1 in [15]; >7.5 g (350g of rat weight)-1 in assay [16]; <0 g (350g of rat weight)-1 in [17]; 7.2 g (350g of rat weight)-1 in [4]; 7.2 g (350g of rat weight)-1 in [23]. For the same compound, the Weight loss is 18.2 g in assay [2]; 15.1 g in [18]; less than 6.2 g in assay [19]; less than 3.8 g in assay [20]; more than 17.2 g in [21]; less than 2.8 g in assay [22].
Regarding `CCCCNCCCNCCCCNCCCNCCCC`, the Stool output in assay [24] is >4.2 g (350g of rat weight)-1; in [25], >5.5 g (350g of rat weight)-1; in [4] it was 4.6 g (350g of rat weight)-1; in assay [29], >3.5 g (350g of rat weight)-1. The Weight loss was 13.6 g in [2], more than 10.2 g in assay [26], more than 11.2 g in assay [27] and more than 12 g in [28].
As to `c1ccc(CNCCCNCCCCNCCCNCc2ccccc2)cc1`, the Stool output was >5 g (350g of rat weight)-1 in assay [30], >6.3 g (350g of rat weight)-1 in [31], 6.2 g (350g of rat weight)-1 in [4] and >6.4 g (350g of rat weight)-1 in assay [35]. Moreover, the Weight loss in assay [2] is 13.3 g; in assay [32] it was more than 13.5 g; in [33], more than 10.4 g; in assay [34], more than 13.1 g.
On to `c1cc(NCCCCNc2ccncc2)ccn1`, for which the Stool output was >6.9 g (350g of rat weight)-1 in assay [36] and 5.6 g (350g of rat weight)-1 in assay [4]. The Weight loss is listed as 13.3 g in [2] and more than 14.4 g in assay [37].
